Data: patent US6433025B1, “Method for retarding and preventing sunburn by UV light” (Cyanotech Corporation, priority 2000, dated 2002)

How the values were obtained:
UV-induced erythema = details: cited from earlier work
rat kidney fibroblasts = details: cited from earlier work; for level necessary to protect against UV-induced loss of catalase (CAT) / level required to protect against loss of SOD activity / level that prevented the UVA-induced increase in TBARS: UVA light for four hours
primed spleen cells = details: cited from earlier work
sunburn cells = details: in vivo; cited from earlier work
hairless mouse = details: repeated topical treatment; cited from earlier work
SKH1 hairless mice = details: cited from earlier work
[1] = test system: interleukin-1 alpha and tumor necrosis factor alpha; details: mouse, in vivo; cited from earlier work
sunburn by UVR exposure = assay: Example 1: oral astaxanthin soft gel capsules in a subject with extreme propensity for sunburns; assay type: in vivo, human
Protocol: Haematococcus algae meal containing 1.5% astaxanthin was thoroughly mixed with safflower oil such that the resulting suspension contained 2.0 mg of pure astaxanthin per gram of safflower oil suspension. 500 mg soft gel capsules were produced from the safflower oil suspension such that each soft gel capsule contained 1.0 mg of pure astaxanthin.
One individual was an adult with extreme propensity for sunburns. The subject had come to Hawaii for vacation and had already sunburned on a 10 minute walk with SPF 50 sunblock cream, long pants and sleeves. They then began taking 2 milligrams of astaxanthin of the above formulation per day. On the eleventh day, they took another walk in the afternoon, on a cloudy day, with long pants, a tee shirt, but without a hat or sunglasses. While 1 mile away from their condo, the clouds dissipated and they were exposed to the full sun while walking back.

SKH hairless mice = details: fed as sole carotenoid source; cited from earlier work
[2] = test system: sunblister sores and sun sensitivity; assay: Example 2: oral astaxanthin in a construction worker with sunblister sores; assay type: in vivo, human; details: 4 milligrams per day oral
Source text: An adult subject is a construction worker in Hawaii and is routinely exposed to the UVR of the sun while working outside. They were often affected by sunblister sores breaking out on their arm after a long day of sun exposure. The individual began taking 4 milligrams of astaxanthin per day derived from Haematococcus algae (as described in the above Example 1). Two milligrams of astaxanthin were consumed with lunch and 2 milligrams with dinner.
The individual stopped taking the astaxanthin formulation for two weeks and the blisters and sun sensitivity returned.

human blood = details: response to T-dependent stimuli; cited from earlier work
vitamin E-deficient rats = details: rat, in vivo; cited from earlier work
human sunburn response = details: oral supplementation, normal individuals; cited from earlier work
[3] = test system: basal-cell and squamous-cell carcinomas; details: 4.5 years, cited from earlier work
laboratory animals = details: applied up to 8 hours following UVB exposure; cited from earlier work
skin of volunteers = details: 10% solution applied to the skin, cited from earlier work

For `COc1ccc2[nH]cc(CCNC(C)=O)c2c1` [melatonin], which “protective effects against UV-induced erythema” value (UV-induced erythema; applied after UV irradiation) is on record?
Its value is “no significant protective effects”.

And the “development of UV-induced erythema” value (UV-induced erythema; topical, 15 min before UV irradiation)?
The value was “almost completely suppress”.

With `CC1=C[C@H](O)CC(C)(C)[C@H]1/C=C/C(C)=C/C=C/C(C)=C/C=C/C=C(C)/C=C/C=C(C)/C=C/C1=C(C)C[C@@H](O)CC1(C)C` [lutein] as the compound, how does the “level necessary to protect against UV-induced loss of catalase (CAT)” value (rat kidney fibroblasts) read?
The value was 100 nM.

And the “level required to protect against loss of SOD activity” value (rat kidney fibroblasts)?
Its value is 1000 nM.

What about the “level that prevented the UVA-induced increase in TBARS” value (rat kidney fibroblasts) of the same compound?
The value was 1000 nM.

What about the “number of antibody-secreting cells from primed spleen cells” value (shortened to “number of antibody-secreting cells”) (primed spleen cells) of the same compound?
The value was “not”.

For tocopherol, which “number of sunburn cells” value (sunburn cells) is on record?
Its value is “decreased”.

With `O=C(OOC(=O)c1ccccc1)c1ccccc1` [benzoyl peroxide] as the compound, how does the “cutaneous effects of repeated administration” value (hairless mouse) read?
Its value is “produces skin changes in the hairless mouse that qualitatively resemble those produced by ultraviolet B”.

For `CC1=C(/C=C/C(C)=C/C=C/C(C)=C/C=C/C=C(C)/C=C/C=C(C)/C=C/C2=C(C)C(=O)[C@@H](O)CC2(C)C)C(C)(C)C[C@H](O)C1=O` [astaxanthin], which “prevention of increases of free putrescine after irradiation” value (SKH1 hairless mice; astaxanthin alone or in combination with retinol) is on record?
The value was “remarkably effective”.

What about the “increase of epidermal putrescine after irradiation” value (SKH1 hairless mice; diet 10-ppm astaxanthin, 4 months, ultraviolet light) of the same compound?
Its value is 1.5 fold.

And the “spermidine and spermine concentrations” value (SKH1 hairless mice; groups fed astaxanthin)?
Its value is “significantly lower”.

What about the “inhibitory effect on putrescine accumulation compared with dietary retinol” value (SKH1 hairless mice; mouse, in vivo) of the same compound?
The value was “stronger inhibitory effect”.

And the “release of interleukin-1 alpha and tumor necrosis factor alpha” value [1]?
The value was “enhances the release of interleukin-1 alpha and tumor necrosis factor alpha in mice to a greater degree than canthaxanthin and beta-carotene”.

What about the “sunburn after exposure to the full sun” value (sunburn by UVR exposure; adult female, 2 milligrams of astaxanthin per day oral, eleventh day) of the same compound?
Its value is “not affected by the UVR exposure”.

And the “sunburn effects while wearing shorts outside” value (sunburn by UVR exposure; remainder of vacation, while taking the astaxanthin supplement)?
The value was “without sunburn effects”.

What about the “probability of epidermal tumors” value (SKH hairless mice) of the same compound?
Its value is “tended to have higher probability of epidermal tumors”.

And the “sensitivity to the sunlight” value ([2]; after 1 month)?
The value was “noticeably improved”.

And the sunblister sores ([2]; after 1 month)?
The sunblister sores was “all of their blisters were healed”.

And the sunblister sores ([2]; after 2 weeks)?
The sunblister sores was “blisters began to heal”.

And the “sensitivity to sun exposure” value ([2]; adult male, after 2 weeks)?
The value was “not sensitive to the sun exposure”.

What about the “production of IgM, IgA and IgG antibodies” value (human blood) of the same compound?
The value was “enhances”.

And the “level necessary to protect against UV-induced loss of catalase (CAT)” value (rat kidney fibroblasts)?
Its value is 5 nM.

And the “level required to protect against loss of SOD activity” value (rat kidney fibroblasts)?
The value was 5 nM.

What about the “level that prevented the UVA-induced increase in TBARS” value (rat kidney fibroblasts) of the same compound?
The value was 1 nM.

What about the “protection against UVA light-induced oxidative stress compared to lutein and beta-carotene” value (rat kidney fibroblasts) of the same compound?
Its value is “superior protection”.

And the “number of antibody-secreting cells” value (primed spleen cells)?
The value was “increased”.

And the “T-helper cell antibody production” value (primed spleen cells; even when suboptimal amounts of antigen were present)?
Its value is “enhanced”.

What about the “mitochondrial damage caused by lipid peroxidation” value (vitamin E-deficient rats) of the same compound?
Its value is “protects the mitochondria from damage”.

What does the source list for `CC(C)=CCC/C(C)=C/C=C/C(C)=C/C=C/C(C)=C/C=C/C=C(C)/C=C/C=C(C)/C=C/C=C(\C)CCC=C(C)C` [lycopene]?
probability of epidermal tumors (SKH hairless mice): tended to have higher probability of epidermal tumors; number of antibody-secreting cells from primed spleen cells (primed spleen cells): not

With `CC1=C(/C=C/C(C)=C/C=C/C(C)=C/C=C/C=C(C)/C=C/C=C(C)/C=C/C2=C(C)CCCC2(C)C)C(C)(C)CCC1` [beta-carotene] as the compound, how does the “severity of cutaneous photodamage” value (human sunburn response) read?
The value was “unlikely to modify”.

What about the “probability of epidermal tumors” value (SKH hairless mice) of the same compound?
The value was “tended to have higher probability of epidermal tumors”.

And the “incidence of basal-cell or squamous-cell carcinoma versus placebo” value ([3]; 30 mg per day)?
The value was “no significant difference”.

What about the “incidence of basal-cell carcinoma in terms of number of tumors” value [3] of the same compound?
The value was “no effect”.

And the “level necessary to protect against UV-induced loss of catalase (CAT)” value (rat kidney fibroblasts)?
Its value is 1000 nM.

What about the “level required to protect against loss of SOD activity” value (rat kidney fibroblasts) of the same compound?
Its value is 500 nM.

And the “level that prevented the UVA-induced increase in TBARS” value (rat kidney fibroblasts)?
The value was 100 nM.

And the “number of antibody-secreting cells” value (primed spleen cells)?
The value was “not”.

With `CC1=C(/C=C/C(C)=C/C=C/C(C)=C/C=C/C=C(C)/C=C/C=C(C)/C=C/C2=C(C)C(=O)CCC2(C)C)C(C)(C)CCC1=O` [canthaxanthin] as the compound, how does the “number of antibody-secreting cells” value (primed spleen cells) read?
The value was “not”.

With `CC(=O)Oc1c(C)c(C)c2c(c1C)CCC(C)(CCC[C@H](C)CCC[C@H](C)CCCC(C)C)O2` (stereo partly drawn) [vitamin E acetate] as the compound, how does the “inflammation, skin sensitivity and skin damage” value (laboratory animals) read?
Its value is “prevented inflammation, skin sensitivity and skin damage”.

For `O=C1O[C@H]([C@@H](O)CO)C(O)=C1O` [vitamin C], which “increase in amount of ultraviolet light needed to burn” value (skin of volunteers; average) is on record?
Its value is 22%.

What about the severity of burns (skin of volunteers) of the same compound?
The severity of burns was “half of the volunteers experienced much less severe bums”.
